According to article PMC8953834, “A Helquat-like Compound as a Potent Inhibitor of Flaviviral and Coronaviral Polymerases” (Molecules, 2022):

Columns and labels:
TBEV (strain Hypr) = assay: microbe, parasite or virus in culture; type: cell-based, tick-borne encephalitis virus; conditions: for EC50: Tick-borne encephalitis virus, 48 h, read-out: EC50, anti-TBEV activity
in vitro = conditions: pig
TBEV RdRp = TBEV RdRp (Tick-borne encephalitis virus, UniProt Q01299); assay: biochemical
YFV RdRp = YFV RdRp (Yellow fever virus, UniProt P03314); assay: biochemical
NTAV RdRp = NTAV RdRp (Ntaya virus, UniProt K0BRZ6); assay: Radioactive polymerase assay (IC50), NTAV RdRp; type: biochemical; conditions: radioactively labeled elongation products, [α-32P]-ATP, hairpin RNA
Chain of NTAV RdRp (K0BRZ6 2523-3427): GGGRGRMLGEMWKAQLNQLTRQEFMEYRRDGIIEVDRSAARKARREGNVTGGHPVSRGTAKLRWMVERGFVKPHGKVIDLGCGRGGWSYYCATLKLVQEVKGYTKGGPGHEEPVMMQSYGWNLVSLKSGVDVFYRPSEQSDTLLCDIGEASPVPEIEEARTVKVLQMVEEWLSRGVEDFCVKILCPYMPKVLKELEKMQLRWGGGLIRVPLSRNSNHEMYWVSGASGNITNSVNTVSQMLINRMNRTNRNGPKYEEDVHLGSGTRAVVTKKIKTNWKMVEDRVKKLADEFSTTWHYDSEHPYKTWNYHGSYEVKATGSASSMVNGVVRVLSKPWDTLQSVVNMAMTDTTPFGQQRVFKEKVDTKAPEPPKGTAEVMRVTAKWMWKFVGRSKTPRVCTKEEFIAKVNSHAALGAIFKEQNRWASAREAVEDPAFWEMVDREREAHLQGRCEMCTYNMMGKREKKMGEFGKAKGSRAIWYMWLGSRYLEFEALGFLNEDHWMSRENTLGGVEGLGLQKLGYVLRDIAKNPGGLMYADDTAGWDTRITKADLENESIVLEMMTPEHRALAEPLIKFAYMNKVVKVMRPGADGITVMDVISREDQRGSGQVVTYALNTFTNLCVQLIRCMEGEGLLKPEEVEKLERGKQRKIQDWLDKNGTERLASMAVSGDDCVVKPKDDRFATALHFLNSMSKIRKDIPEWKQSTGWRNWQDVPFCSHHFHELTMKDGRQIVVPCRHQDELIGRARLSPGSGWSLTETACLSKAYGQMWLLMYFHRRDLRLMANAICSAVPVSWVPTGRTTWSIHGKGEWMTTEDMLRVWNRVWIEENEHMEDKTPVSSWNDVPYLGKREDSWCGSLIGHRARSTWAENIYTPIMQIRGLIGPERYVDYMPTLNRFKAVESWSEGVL

JEV RdRp = molecular target: T1, JEV RdRp (Japanese encephalitis virus, UniProt P32886); assay: biochemical
T1 construct: NS5 proteins and SARS-CoV-2 nsp12, nsp8 and nsp7 were expressed with appropriate purification and folding tags; His6-TEV site (N); made in house; host or cells: E. coli BL-21 CodonPlus (DE3)-RIL
T1 sequence (P32886 2528-3432 limits assumed): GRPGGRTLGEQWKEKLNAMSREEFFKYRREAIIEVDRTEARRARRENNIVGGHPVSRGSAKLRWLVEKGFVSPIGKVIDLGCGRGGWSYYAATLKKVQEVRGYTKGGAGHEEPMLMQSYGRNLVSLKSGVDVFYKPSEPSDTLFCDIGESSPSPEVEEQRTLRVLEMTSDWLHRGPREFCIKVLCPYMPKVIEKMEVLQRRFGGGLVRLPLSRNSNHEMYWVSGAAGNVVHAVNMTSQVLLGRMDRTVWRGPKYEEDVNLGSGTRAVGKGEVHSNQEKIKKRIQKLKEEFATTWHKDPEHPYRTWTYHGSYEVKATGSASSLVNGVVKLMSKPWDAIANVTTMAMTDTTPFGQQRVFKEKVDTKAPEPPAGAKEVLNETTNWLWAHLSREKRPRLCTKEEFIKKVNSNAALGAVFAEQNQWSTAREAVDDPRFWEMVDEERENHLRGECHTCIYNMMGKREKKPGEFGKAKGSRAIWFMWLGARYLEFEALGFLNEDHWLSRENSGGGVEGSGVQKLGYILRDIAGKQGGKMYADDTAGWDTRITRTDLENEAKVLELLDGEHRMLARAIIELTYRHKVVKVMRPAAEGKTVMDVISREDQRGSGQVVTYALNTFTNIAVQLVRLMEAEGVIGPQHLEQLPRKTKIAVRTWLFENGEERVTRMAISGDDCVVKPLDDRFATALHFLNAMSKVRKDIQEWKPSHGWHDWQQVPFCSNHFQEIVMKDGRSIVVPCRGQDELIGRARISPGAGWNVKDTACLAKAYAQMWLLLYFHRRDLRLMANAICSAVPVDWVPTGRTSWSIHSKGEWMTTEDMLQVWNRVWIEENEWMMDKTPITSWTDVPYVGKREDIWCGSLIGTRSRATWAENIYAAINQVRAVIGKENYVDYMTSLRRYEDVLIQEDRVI

SARS-CoV-2 [1] = assay: Anti-SARS-CoV-2 immunofluorescence assay (IFA) in VERO-E6 cells; type: cell-based; conditions: Severe acute respiratory syndrome coronavirus 2, Vero C1008, 72 h, MOI 0.02, 3 days, read-out: EC50, inhibition of SARS-CoV-2 (nucleoprotein IFA)
Caco-2 cells = assay: Cytotoxicity (XTT) in Caco-2 cells
[2] = Cytotoxicity (XTT) in Caco-2 cells; conditions: human
SARS-CoV-2 [3] = type: cell-based
SARS-CoV-2 [4] = assay: SARS-CoV-2 yield reduction assay (plaque assay) in VERO-E6 cells; type: cell-based; conditions: MOI 0.04, 3 days
flaviviral RdRp = type: biochemical, Flaviviridae (JEV, NTAV, TBEV, YFV, ZIKV)
WNV RdRp = molecular target: T2, WNV RdRp (West Nile virus, UniProt Q9Q6P4); assay: biochemical
T2 construct: NS5 proteins and SARS-CoV-2 nsp12, nsp8 and nsp7 were expressed with appropriate purification and folding tags; His6-TEV site (N); made in house; host or cells: E. coli BL-21 CodonPlus (DE3)-RIL
T2 sequence (Q9Q6P4 2529-3433 limits assumed): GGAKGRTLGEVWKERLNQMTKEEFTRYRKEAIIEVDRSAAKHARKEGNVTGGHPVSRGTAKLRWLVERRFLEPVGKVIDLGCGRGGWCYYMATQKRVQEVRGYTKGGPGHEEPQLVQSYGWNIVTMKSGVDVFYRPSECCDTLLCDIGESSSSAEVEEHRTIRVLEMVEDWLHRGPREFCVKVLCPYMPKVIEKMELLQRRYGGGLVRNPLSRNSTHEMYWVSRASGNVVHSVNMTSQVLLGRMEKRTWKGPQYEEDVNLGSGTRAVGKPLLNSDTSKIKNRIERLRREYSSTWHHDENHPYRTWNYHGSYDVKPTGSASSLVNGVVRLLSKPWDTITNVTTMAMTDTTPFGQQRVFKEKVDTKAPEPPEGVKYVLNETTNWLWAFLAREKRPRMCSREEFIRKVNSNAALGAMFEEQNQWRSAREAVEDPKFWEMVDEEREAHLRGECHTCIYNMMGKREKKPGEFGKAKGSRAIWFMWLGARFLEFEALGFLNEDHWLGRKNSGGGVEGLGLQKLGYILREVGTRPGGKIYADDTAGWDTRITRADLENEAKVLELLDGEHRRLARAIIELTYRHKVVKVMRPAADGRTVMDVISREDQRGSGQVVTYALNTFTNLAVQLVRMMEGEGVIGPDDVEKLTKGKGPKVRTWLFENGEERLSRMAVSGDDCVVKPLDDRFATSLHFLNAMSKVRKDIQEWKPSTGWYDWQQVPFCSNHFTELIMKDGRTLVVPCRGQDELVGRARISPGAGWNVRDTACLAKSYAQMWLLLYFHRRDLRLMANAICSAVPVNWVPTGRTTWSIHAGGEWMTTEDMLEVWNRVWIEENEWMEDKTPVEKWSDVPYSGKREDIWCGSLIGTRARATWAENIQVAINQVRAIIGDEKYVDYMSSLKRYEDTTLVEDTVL

ZIKV RdRp = ZIKV RdRp (Zika virus, UniProt A0A1L5YKZ2); assay: Radioactive polymerase assay (IC50), ZIKV RdRp; type: biochemical; conditions: radioactively labeled elongation products, [α-32P]-ATP, hairpin RNA
Chain of ZIKV RdRp (A0A1L5YKZ2 2521-3423): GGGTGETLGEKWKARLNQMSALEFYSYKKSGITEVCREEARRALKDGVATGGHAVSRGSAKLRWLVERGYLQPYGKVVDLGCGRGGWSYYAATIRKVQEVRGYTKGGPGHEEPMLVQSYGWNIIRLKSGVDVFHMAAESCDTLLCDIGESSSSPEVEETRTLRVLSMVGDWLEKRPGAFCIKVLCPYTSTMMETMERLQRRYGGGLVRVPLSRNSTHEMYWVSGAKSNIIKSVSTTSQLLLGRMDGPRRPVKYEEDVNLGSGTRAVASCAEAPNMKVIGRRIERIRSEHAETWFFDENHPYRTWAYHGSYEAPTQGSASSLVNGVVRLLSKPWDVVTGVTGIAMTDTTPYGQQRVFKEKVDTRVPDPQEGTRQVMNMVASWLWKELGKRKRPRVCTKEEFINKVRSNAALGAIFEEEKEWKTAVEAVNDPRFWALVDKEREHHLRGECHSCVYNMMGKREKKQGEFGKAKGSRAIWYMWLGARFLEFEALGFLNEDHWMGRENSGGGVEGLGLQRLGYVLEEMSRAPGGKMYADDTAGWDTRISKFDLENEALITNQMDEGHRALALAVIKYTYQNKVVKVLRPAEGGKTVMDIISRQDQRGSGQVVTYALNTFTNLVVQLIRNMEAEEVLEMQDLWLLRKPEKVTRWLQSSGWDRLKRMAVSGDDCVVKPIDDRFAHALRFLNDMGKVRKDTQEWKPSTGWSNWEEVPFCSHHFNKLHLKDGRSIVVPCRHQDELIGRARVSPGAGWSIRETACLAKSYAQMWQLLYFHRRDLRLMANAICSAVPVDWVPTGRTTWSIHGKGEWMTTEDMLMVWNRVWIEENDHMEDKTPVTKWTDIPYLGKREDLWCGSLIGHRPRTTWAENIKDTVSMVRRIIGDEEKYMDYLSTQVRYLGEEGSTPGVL

SARS-CoV-2 [5] = assay: Anti-SARS-CoV-2 immunofluorescence assay (IFA) in Caco-2 cells; type: cell-based; conditions: Severe acute respiratory syndrome coronavirus 2, MOI 0.002, read-out: EC50, inhibition of SARS-CoV-2 replication (nucleoprotein IFA)
VERO-E6 cells = assay: Cytotoxicity (XTT) in VERO-E6 cells; conditions: 3 days
SARS-CoV-2 [6] = assay: Anti-SARS-CoV-2 cytopathic effect (CPE)-based assay in Calu-3 cells; type: cell-based; conditions: Severe acute respiratory syndrome coronavirus 2, 72 h, MOI 0.04, 3 days, XTT, read-out: EC50, inhibition of virus-induced CPE
[7] = molecular target: T3, SARS-CoV-2 RdRp (nsp7, nsp8 and nsp12) (Severe acute respiratory syndrome coronavirus 2, UniProt P0DTD1); type: biochemical
T3 construct: except for the full length nsp12 protein, which was expressed in insect cells; His6 (C); made in house; host or cells: nsp12 in insect cells; nsp7 and nsp8 in E. coli BL-21 CodonPlus (DE3)-RIL

Calu-3 cells = assay: Cytotoxicity (XTT) in Calu-3 cells
[8] = Cytotoxicity (XTT) in Calu-3 cells; conditions: human
SARS-CoV-2 RdRp = molecular target: T4, SARS-CoV-2 RdRp (Severe acute respiratory syndrome coronavirus 2, UniProt P0DTD1); assay: biochemical
T4 construct: except for the full length nsp12 protein, which was expressed in insect cells; His6 (C); made in house; host or cells: nsp12 in insect cells; nsp7 and nsp8 in E. coli BL-21 CodonPlus (DE3)-RIL

Chain of TBEV RdRp (Q01299 2512-3414 limits assumed): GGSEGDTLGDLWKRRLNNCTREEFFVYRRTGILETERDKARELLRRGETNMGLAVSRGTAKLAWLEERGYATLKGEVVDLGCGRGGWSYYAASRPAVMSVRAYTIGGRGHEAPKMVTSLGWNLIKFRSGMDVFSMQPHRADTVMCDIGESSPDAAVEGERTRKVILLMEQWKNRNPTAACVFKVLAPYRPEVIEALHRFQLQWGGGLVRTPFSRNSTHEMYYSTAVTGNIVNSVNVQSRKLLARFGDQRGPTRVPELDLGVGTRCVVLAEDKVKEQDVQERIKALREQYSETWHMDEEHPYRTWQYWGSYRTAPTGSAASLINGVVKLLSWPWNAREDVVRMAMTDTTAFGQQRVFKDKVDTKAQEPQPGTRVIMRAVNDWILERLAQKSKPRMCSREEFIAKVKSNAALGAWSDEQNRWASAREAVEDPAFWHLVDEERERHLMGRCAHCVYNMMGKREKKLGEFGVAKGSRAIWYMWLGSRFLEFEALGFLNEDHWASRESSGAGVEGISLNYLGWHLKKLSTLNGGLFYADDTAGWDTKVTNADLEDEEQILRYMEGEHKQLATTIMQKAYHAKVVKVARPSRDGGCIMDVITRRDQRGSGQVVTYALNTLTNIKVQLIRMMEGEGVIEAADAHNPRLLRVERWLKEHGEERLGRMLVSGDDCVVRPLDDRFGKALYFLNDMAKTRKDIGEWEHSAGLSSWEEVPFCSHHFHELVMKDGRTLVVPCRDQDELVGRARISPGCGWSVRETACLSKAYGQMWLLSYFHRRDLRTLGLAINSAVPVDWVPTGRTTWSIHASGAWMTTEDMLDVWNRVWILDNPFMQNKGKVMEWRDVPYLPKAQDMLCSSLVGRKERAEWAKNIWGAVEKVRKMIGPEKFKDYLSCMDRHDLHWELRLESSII

## C[C@@]1(O)[C@H](O)[C@@H](CO)O[C@H]1n1ccc2c(N)ncnc21 [7-deaza-2′-CMA, 7-deaza-2′-C-methyladenosine, reference compound]
TBEV (strain Hypr)
  EC50: 0.43 ± 0.06 µM
In vitro
  CC50: > 50 µM

## Cc1c(C)c2c(c3c1CC[n+]1ccc(/C=C4\Sc5ccccc5N4C)cc1-3)-c1cccc(/C=C3\Sc4ccccc4N3C)[n+]1CC2 [PR673]
TBEV RdRp
  IC50: 3.6 ± 0.2 µM
YFV RdRp
  IC50: 3 ± 0.1 µM
NTAV RdRp
  IC50: 3.1 ± 0.2 µM
JEV RdRp
  IC50: 3.9 ± 0.4 µM
SARS-CoV-2 [1]
  EC50: 29 µM
Caco-2 cells
  cytotoxicity at the highest used concentration: mild cytotoxicity
[2]
  CC50 at 3 days: > 50 µM
SARS-CoV-2 [3]
  inhibition of virus replication (virus-induced CPE) in screen: inhibited the replication of the virus
SARS-CoV-2 [4]
  activity compared with remdesivir in yield reduction assay: much less active than the COVID-19 drug remdesivir
SARS-CoV-2 [4]; at 50 µM
  reduction in viral plaques: 58%
Flaviviral RdRp
  inhibition of RNA synthesis by flaviviral RdRps: strong inhibition of RNA synthesis in low micromolar concentrations
TBEV (strain Hypr)
  anti-TBEV activity in comparison to 7-deaza-2′-CMA: almost four-fold higher
  compound concentration of complete inhibition of TBEV replication: 0.4 µM
  EC50: 0.11 µM
WNV RdRp
  IC50: 3.4 ± 0.2 µM
ZIKV RdRp
  IC50: 4.9 ± 0.5 µM
SARS-CoV-2 [5]
  EC50: 17 µM
VERO-E6 cells
  cell toxicity: no cell toxicity
In vitro
  CC50: > 50 µM
SARS-CoV-2 [6]
  EC50: 18 µM
[7]
  PR673 concentration at which synthesis of RNA was totally blocked: above 12.5 µM
Calu-3 cells
  cytotoxicity at the highest used concentration: mild cytotoxicity
[8]
  CC50 at 3 days: > 50 µM
SARS-CoV-2 RdRp
  IC50: 4 ± 0.2 µM
